Experimental data from patent publication US10968200B2, “Salts of an LSD1 inhibitor and processes for preparing the same” (priority 2018, dated 2021).
Counter-ions that a name gives are not always drawn. Like-named read-outs stand apart in the source and are kept apart here.

What was measured:
[1] = Solubility measurement of Compound 1 di-HCl in various solvents; type: physicochemical; settings: thermodynamic from solid; for solubility: by vision; for solubility at 24 h: agitated 24 h
[2] = as above; type: physicochemical; settings: organic solvent or mixture, thermodynamic from solid; for solubility at 36 h: 25 °C, 25±1° C., agitated 36 h; for solubility at 24 h: 50 °C, 50±1° C., agitated 24 h
Description: The solubility of Compound 1 di-HCl was measured at 25±1° C. and 50±1° C. according to the following procedures.
Compound 1 di-HCl was added to 2 mL of a solvent listed in Table 3 at 25±1° C. until the solution became cloudy. Another 10 mg of Compound 1 di-HCl was then added. The mixture was agitated at 25±1° C. for 36 h. The supernatant was filtered using a syringe filter. The saturated solution was pipetted into an HPLC vial, which was diluted with acetonitrile. The solubility of Compound 1 di-HCl was calculated for each solvent.
Compound 1 di-HCl was added to 2 mL of a solvent listed in Table 3 at 50±1° C. until the solution became cloudy. Another 20-25 mg of Compound 1 di-HCl was then added. The mixture was agitated at 50±1° C. for 24 h. The supernatant was filtered using a warmed syringe filter at 50±1° C. The saturated solution was pipetted into an HPLC vial, which was diluted with acetonitrile. The solubility of Compound 1 di-HCl was calculated for each solvent.

solubility at 36 h ([1]; 25 °C, organic solvent or mixture, solvent 1,4-Dioxane, 25±1° C., agitated 36 h): 200 µg/mL
solubility at 36 h ([1]; 25 °C, organic solvent or mixture, solvent 1-Propanol, 25±1° C., agitated 36 h): 4600 µg/mL
solubility at 36 h ([1]; 25 °C, organic solvent or mixture, solvent 5% Water in ACN, 25±1° C.): > 50000 µg/mL
solubility ([1]; 25 °C, organic solvent or mixture, solvent 5% Water in MeOH, 25±1° C., read-out: Solubility at 25° C.): > 50000 µg/mL
solubility ([1]; 25 °C, organic solvent or mixture, solvent ACN/water (9:1), 25±1° C., read-out: Solubility at 25° C.): > 50000 µg/mL
solubility ([1]; 25 °C, organic solvent or mixture, solvent ACN:Water (4:1), 25±1° C., read-out: Solubility at 25° C.): > 50000 µg/mL
solubility ([1]; 25 °C, organic solvent or mixture, solvent Chloroform, 25±1° C., read-out: Solubility at 25° C.): > 50000 µg/mL
solubility ([1]; 25 °C, organic solvent or mixture, solvent DMF, 25±1° C., read-out: Solubility at 25° C.): > 50000 µg/mL
solubility ([1]; 25 °C, organic solvent or mixture, solvent DMSO, 25±1° C., read-out: Solubility at 25° C.): > 50000 µg/mL
solubility at 36 h ([1]; 25 °C, organic solvent or mixture, solvent EtOH, 25±1° C., agitated 36 h): 3370 µg/mL
solubility at 36 h ([1]; 25 °C, organic solvent or mixture, solvent Ethyl formate, 25±1° C., agitated 36 h): 90 µg/mL
solubility at 36 h ([1]; 25 °C, organic solvent or mixture, solvent MEK, 25±1° C., agitated 36 h): 160 µg/mL
solubility at 36 h ([1]; 25 °C, organic solvent or mixture, solvent MIBK, 25±1° C., agitated 36 h): 60 µg/mL
solubility ([1]; 25 °C, organic solvent or mixture, solvent MeOH/ACN (10 v/3 v), 25±1° C., read-out: Solubility at 25° C.): > 50000 µg/mL
solubility ([1]; 25 °C, organic solvent or mixture, solvent MeOH/Water/ACN (6.0/0.5/1.0), 25±1° C., read-out: Solubility at 25° C.): > 50000 µg/mL
solubility ([1]; 25 °C, organic solvent or mixture, solvent MeOH/water/ACN (6 v/0.5 v/3.5 v), 25±1° C., read-out: Solubility at 25° C.): > 50000 µg/mL
solubility at 36 h ([1]; 25 °C, organic solvent or mixture, solvent MeOH/water/ACN (6 v/1 v/3 v), 25±1° C.): > 50000 µg/mL
solubility ([1]; 25 °C, organic solvent or mixture, solvent MeOH/water/ACN (6 v/1.5 v/3 v), 25±1° C., read-out: Solubility at 25° C.): > 50000 µg/mL
solubility at 36 h ([1]; 25 °C, organic solvent or mixture, solvent THF, 25±1° C., agitated 36 h): 40 µg/mL
solubility ([1]; 25 °C, solvent Water, 25±1° C., read-out: Solubility at 25° C.): > 50000 µg/mL
solubility at 24 h ([1]; 50 °C, organic solvent or mixture, solvent 2-Methoxyethanol, 50±1° C.): 48300 µg/mL
solubility at 24 h ([1]; 50 °C, organic solvent or mixture, solvent 5% Water in ACN, 50±1° C.): 45400 µg/mL
solubility ([1]; 50 °C, organic solvent or mixture, solvent 5% Water in MeOH, 50±1° C., read-out: Solubility at 50° C.): > 50000 µg/mL
solubility ([1]; 50 °C, organic solvent or mixture, solvent ACN/water (9:1), 50±1° C., read-out: Solubility at 50° C.): > 50000 µg/mL
solubility ([1]; 50 °C, organic solvent or mixture, solvent ACN:Water (4:1), 50±1° C., read-out: Solubility at 50° C.): > 50000 µg/mL
solubility at 24 h ([1]; 50 °C, organic solvent or mixture, solvent Acetone, 50±1° C.): 850 µg/mL
solubility ([1]; 50 °C, organic solvent or mixture, solvent Chloroform, 50±1° C., read-out: Solubility at 50° C.): > 50000 µg/mL
solubility ([1]; 50 °C, organic solvent or mixture, solvent DMF, 50±1° C., read-out: Solubility at 50° C.): > 50000 µg/mL
solubility ([1]; 50 °C, organic solvent or mixture, solvent DMSO, 50±1° C., read-out: Solubility at 50° C.): > 50000 µg/mL
solubility at 24 h ([1]; 50 °C, organic solvent or mixture, solvent IPA, 50±1° C.): 1910 µg/mL
solubility ([1]; 50 °C, organic solvent or mixture, solvent MeOH/ACN (10 v/3 v), 50±1° C., read-out: Solubility at 50° C.): > 50000 µg/mL
solubility ([1]; 50 °C, organic solvent or mixture, solvent MeOH/Water/ACN (6.0/0.5/1.0), 50±1° C., read-out: Solubility at 50° C.): > 50000 µg/mL
solubility ([1]; 50 °C, organic solvent or mixture, solvent MeOH/water/ACN (6 v/0.5 v/3.5 v), 50±1° C., read-out: Solubility at 50° C.): > 50000 µg/mL
solubility ([1]; 50 °C, organic solvent or mixture, solvent MeOH/water/ACN (6 v/1 v/3 v), 50±1° C., read-out: Solubility at 50° C.): > 50000 µg/mL
solubility ([1]; 50 °C, organic solvent or mixture, solvent MeOH/water/ACN (6 v/1.5 v/3 v), 50±1° C., read-out: Solubility at 50° C.): > 50000 µg/mL
solubility at 24 h ([1]; 50 °C, organic solvent or mixture, solvent Methanol, 50±1° C.): > 50000 µg/mL
solubility at 24 h ([1]; 50 °C, organic solvent or mixture, solvent n-BuOH, 50±1° C.): 2340 µg/mL
solubility ([1]; 50 °C, solvent Water, 50±1° C., read-out: Solubility at 50° C.): > 50000 µg/mL
solubility ([1]; MeOH/water/ACN (5 v/2 v/3 v), 25 °C, organic solvent or mixture, solvent Me0H/water/ACN (5 v/2 v/3 v), 25±1° C., read-out: Solubility at 25° C.): > 50000 µg/mL
solubility ([1]; MeOH/water/ACN (5 v/2 v/3 v), 50 °C, organic solvent or mixture, solvent Me0H/water/ACN (5 v/2 v/3 v), 50±1° C., read-out: Solubility at 50° C.): > 50000 µg/mL
solubility at 36 h ([2]; solvent 2-Methoxyethanol): 45900 µg/mL
solubility at 36 h ([2]; solvent Acetone): 3490 µg/mL
solubility at 36 h ([2]; solvent IPA): 1310 µg/mL
solubility at 36 h ([2]; solvent MeCN): 610 µg/mL
solubility at 36 h ([2]; solvent Methanol): 32300 µg/mL
solubility at 36 h ([2]; solvent n-BuOH): 1310 µg/mL
solubility at 24 h ([2]; solvent 1,4-Dioxane): 310 µg/mL
solubility at 24 h ([2]; solvent 1-Propanol): 5210 µg/mL
solubility at 24 h ([2]; solvent Dichloromethane): 60 µg/mL
solubility at 24 h ([2]; solvent EtOAc): 30 µg/mL
solubility at 24 h ([2]; solvent EtOH): 3630 µg/mL
solubility at 24 h ([2]; solvent Ethyl formate): 50 µg/mL
solubility at 24 h ([2]; solvent MEK): 160 µg/mL
solubility at 24 h ([2]; solvent MIBK): 130 µg/mL
solubility at 24 h ([2]; solvent MeCN): 6290 µg/mL
solubility at 24 h ([2]; solvent THF): 90 µg/mL
SMILES: N#CCC1(N2CCC(N[C@@H]3C[C@H]3c3ccccc3)CC2)CN(S(N)(=O)=O)C1 [Compound 1 di-HCl, 3-(cyanomethyl)-3-(4-{[(1R,2S)-2-phenylcyclopropyl]amino}piperidin-1-yl)azetidine-1-sulfonamide dihydrochloride]
